Counter-ions that a name gives are not always drawn. Like-named read-outs stand apart in the source and are kept apart here.
System: Acinetobacter baumannii ATCC17961
Experiment: Antimicrobial susceptibility testing: 90% growth inhibitory concentration (IC90) determination in Iso-Sensitest broth, OD600 growth
Assay type: cell-based
Outline: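 Growth monitored at 600 nm every 20 min for 16 h at 35±2 °C, inoculum ~5×10^(5) CFU/ml in Iso-Sensitest medium. Compounds in 10-point twofold series, e.g. 50 to 0.097 μM final; 90% inhibitory concentration taken from log-phase growth.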

[1] = Acinetobacter baumannii, ATCC17961, 16 h, read-out: A. baumannii ATCC 17961 IC90 (uM), strain ATCC 17961, OD600 growth over 16 h
[2] = strain ATCC 17961, OD600 growth over 16 h, read-out: A. baumannii ATCC 17961 IC90
[3] = Acinetobacter baumannii, ATCC17961, 16 h, strain ATCC 17961, OD600 growth over 16 h, read-out: A. baumannii ATCC 17961 IC90

Molecule `Cc1cc(Nc2nccn3c(-c4cn(CC#N)nc4C(F)(F)F)cnc23)ccc1C(=O)N1CCN(C(=O)[C@H]2CCNC[C@@H]2O)CC1` [Example 382, formic acid; 2-[4-[8-[4-[4-[(3R,4S)-3-hydroxypiperidine-4-carbonyl]piperazine-1-carbonyl]-3-methylanilino]imidazo[1,2-a]pyrazin-3-yl]-3-(trifluoromethyl)pyrazol-1-yl]acetonitrile] has an IC90 [1] of 0.749 µM.
Molecule `NC1CC(NC(=O)c2ccc(Nc3nccn4c(-c5c[nH]nc5C(F)(F)F)cnc34)cc2Cl)C1` (stereo not drawn) [Example 384, N-(3-aminocyclobutyl)-2-chloro-4-[[3-[3-(trifluoromethyl)-1H-pyrazol-4-yl]imidazo[1,2-a]pyrazin-8-yl]amino]benzamide] has an IC90 [2] of 0.833 µM.
Work on `NC1CCC(NC(=O)c2ccc(Nc3nccn4c(-c5c[nH]nc5C(F)(F)F)cnc34)cc2Cl)CC1` (stereo not drawn) [Example 385, N-(4-aminocyclohexyl)-2-chloro-4-[[3-[3-(trifluoromethyl)-1H-pyrazol-4-yl]imidazo[1,2-a]pyrazin-8-yl]amino]benzamide] yielded an IC90 [3] of 0.969 µM.
With `CNC(=O)c1ccc(Nc2nccn3c(-c4c[nH]nc4C(F)(F)F)cnc23)cc1Cl` [Example 388, 2-chloro-N-methyl-4-[[3-[3-(trifluoromethyl)-1H-pyrazol-4-yl]imidazo[1,2-a]pyrazin-8-yl]amino]benzamide] the IC90 [3] was 0.337 µM.
`O=C(N[C@H]1CCNC1)N1CCN(C(=O)c2ccc(Nc3nccn4c(-c5c[nH]nc5C(F)(F)F)cnc34)cc2Cl)CC1` [Example 389, 4-[2-chloro-4-[[3-[3-(trifluoromethyl)-1H-pyrazol-4-yl]imidazo[1,2-a]pyrazin-8-yl]amino]benzoyl]-N-[(3S)-pyrrolidin-3-yl]piperazine-1-carboxamide formate] gave an IC90 [1] of 0.136 µM.
`NCCCNC(=O)N1CCN(C(=O)c2ccc(Nc3nccn4c(-c5c[nH]nc5C(F)(F)F)cnc34)cc2Cl)CC1` [Example 390, N-(3-aminopropyl)-4-[2-chloro-4-[[3-[3-(trifluoromethyl)-1H-pyrazol-4-yl]imidazo[1,2-a]pyrazin-8-yl]amino]benzoyl]piperazine-1-carboxamide formate] was tested, and the IC90 [1] was 0.177 µM.
Molecule `O=C(N[C@@H]1CCNC1)N1CCN(C(=O)c2ccc(Nc3nccn4c(-c5c[nH]nc5C(F)(F)F)cnc34)cc2Cl)CC1` [Example 391, 4-[2-chloro-4-[[3-[3-(trifluoromethyl)-1H-pyrazol-4-yl]imidazo[1,2-a]pyrazin-8-yl]amino]benzoyl]-N-[(3R)-pyrrolidin-3-yl]piperazine-1-carboxamide formate] has an IC90 [1] of 0.203 µM.
Molecule `NCCNC(=O)N1CCN(C(=O)c2ccc(Nc3nccn4c(-c5c[nH]nc5C(F)(F)F)cnc34)cc2Cl)CC1` [Example 392, N-(2-aminoethyl)-4-[2-chloro-4-[[3-[3-(trifluoromethyl)-1H-pyrazol-4-yl]imidazo[1,2-a]pyrazin-8-yl]amino]benzoyl]piperazine-1-carboxamide formate] has an IC90 [1] of 0.208 µM.
In the case of `O=C(NCC1CNC1)N1CCN(C(=O)c2ccc(Nc3nccn4c(-c5c[nH]nc5C(F)(F)F)cnc34)cc2Cl)CC1` [Example 393, N-(azetidin-3-ylmethyl)-4-[2-chloro-4-[[3-[3-(trifluoromethyl)-1H-pyrazol-4-yl]imidazo[1,2-a]pyrazin-8-yl]amino]benzoyl]piperazine-1-carboxamide formate], the IC90 [1] is reported as 0.239 µM.
In the case of `O=C(NC1CNC1)N1CCN(C(=O)c2ccc(Nc3nccn4c(-c5c[nH]nc5C(F)(F)F)cnc34)cc2Cl)CC1` [Example 394, N-(azetidin-3-yl)-4-[2-chloro-4-[[3-[3-(trifluoromethyl)-1H-pyrazol-4-yl]imidazo[1,2-a]pyrazin-8-yl]amino]benzoyl]piperazine-1-carboxamide formate], the IC90 [1] is reported as 0.331 µM.
In the case of `NCCCC(=O)N1CCN(C(=O)c2ccc(Nc3nccn4c(-c5c[nH]nc5C(F)(F)F)cnc34)cc2Cl)CC1` [Example 399, 4-amino-1-[4-[2-chloro-4-[[3-[3-(trifluoromethyl)-1H-pyrazol-4-yl]imidazo[1,2-a]pyrazin-8-yl]amino]benzoyl]piperazin-1-yl]butan-1-one formate], the IC90 [1] is reported as 0.214 µM.
Molecule `NCCC(=O)N1CCN(C(=O)c2ccc(Nc3nccn4c(-c5c[nH]nc5C(F)(F)F)cnc34)cc2Cl)CC1` [Example 400, 3-amino-1-[4-[2-chloro-4-[[3-[3-(trifluoromethyl)-1H-pyrazol-4-yl]imidazo[1,2-a]pyrazin-8-yl]amino]benzoyl]piperazin-1-yl]propan-1-one formate] has an IC90 [1] of 0.217 µM.
`O=C(c1ccc(Nc2nccn3c(-c4c[nH]nc4C(F)(F)F)cnc23)cc1Cl)N1CCN(C(=O)C2CCNCC2)CC1` [Example 401, [2-chloro-4-[[3-[3-(trifluoromethyl)-1H-pyrazol-4-yl]imidazo[1,2-a]pyrazin-8-yl]amino]phenyl]-[4-(piperidine-4-carbonyl)piperazin-1-yl]methanone formate] was tested, and the IC90 [1] was 0.273 µM.
In the case of `CN(C)C(=O)c1ccc(Nc2nccn3c(-c4c[nH]nc4C(F)(F)F)cnc23)cc1Cl` [Example 402, 2-chloro-N,N-dimethyl-4-[[3-[3-(trifluoromethyl)-1H-pyrazol-4-yl]imidazo[1,2-a]pyrazin-8-yl]amino]benzamide], the IC90 [3] is reported as 0.384 µM.
`NC1CC(NC(=O)c2ccc(Nc3nccn4c(-c5c[nH]nc5C(F)(F)F)cnc34)cc2Cl)C1` (stereo not drawn) [Example 403, N-(3-aminocyclobutyl)-2-chloro-4-[[3-[3-(trifluoromethyl)-1H-pyrazol-4-yl]imidazo[1,2-a]pyrazin-8-yl]amino]benzamide] was tested, and the IC90 [2] was 0.398 µM.
In the case of `NC(=O)c1ccc(Nc2nccn3c(-c4c[nH]nc4C(F)(F)F)cnc23)cc1Cl` [Example 404, 2-chloro-4-[[3-[3-(trifluoromethyl)-1H-pyrazol-4-yl]imidazo[1,2-a]pyrazin-8-yl]amino]benzamide], the IC90 [3] is reported as 1.23 µM.
`NC1CCC(NC(=O)c2ccc(Nc3nccn4c(-c5c[nH]nc5C(F)(F)F)cnc34)cc2Cl)CC1` (stereo not drawn) [Example 405, N-(4-aminocyclohexyl)-2-chloro-4-[[3-[3-(trifluoromethyl)-1H-pyrazol-4-yl]imidazo[1,2-a]pyrazin-8-yl]amino]benzamide] showed an IC90 [2] of 1.3 µM.
`O=C(NC1CNC1)c1ccc(Nc2nccn3c(-c4c[nH]nc4C(F)(F)F)cnc23)cc1Cl` [Example 406, N-(azetidin-3-yl)-2-chloro-4-[[3-[3-(trifluoromethyl)-1H-pyrazol-4-yl]imidazo[1,2-a]pyrazin-8-yl]amino]benzamide] gave an IC90 [3] of 1.4 µM.
In the case of `Cc1cc(Nc2nccn3c(-c4c[nH]nc4C(F)(F)F)cnc23)ccc1C(=O)N1CCN(C(=O)NC2CNC2)CC1` [Example 408, N-(azetidin-3-yl)-4-[2-methyl-4-[[3-[3-(trifluoromethyl)-1H-pyrazol-4-yl]imidazo[1,2-a]pyrazin-8-yl]amino]benzoyl]piperazine-1-carboxamide formate], the IC90 [1] is reported as 0.481 µM.
For `Cc1cc(Nc2nccn3c(-c4c[nH]nc4C(F)(F)F)cnc23)ccc1C(=O)N1CCN(C(=O)NCC2CNC2)CC1` [Example 410, N-(azetidin-3-ylmethyl)-4-[2-methyl-4-[[3-[3-(trifluoromethyl)-1H-pyrazol-4-yl]imidazo[1,2-a]pyrazin-8-yl]amino]benzoyl]piperazine-1-carboxamide], the IC90 [3] was 1.42 µM.
`O=C(NC1CCNCC1)c1ccc(Nc2nccn3c(-c4c[nH]nc4C(F)(F)F)cnc23)cc1Cl` [Example 413, 2-chloro-N-piperidin-4-yl-4-[[3-[3-(trifluoromethyl)-1H-pyrazol-4-yl]imidazo[1,2-a]pyrazin-8-yl]amino]benzamide] gave an IC90 [3] of 2.2 µM.
For `O=C(NC1CCCNC1)c1ccc(Nc2nccn3c(-c4c[nH]nc4C(F)(F)F)cnc23)cc1Cl` (stereo not drawn) [Example 414, 2-chloro-N-piperidin-3-yl-4-[[3-[3-(trifluoromethyl)-1H-pyrazol-4-yl]imidazo[1,2-a]pyrazin-8-yl]amino]benzamide], the IC90 [3] was 4.04 µM.
With `Cc1cc(Nc2nccn3c(-c4c[nH]nc4C(F)(F)F)cnc23)ccc1C(=O)N1CCN(C(=O)N[C@@H]2CCNC2)CC1` [Example 416, formic acid; 4-[2-methyl-4-[[3-[3-(trifluoromethyl)-1H-pyrazol-4-yl]imidazo[1,2-a]pyrazin-8-yl]amino]benzoyl]-N-[(3R)-pyrrolidin-3-yl]piperazine-1-carboxamide] the IC90 [1] was 0.441 µM.
For `Cc1cc(Nc2nccn3c(-c4c[nH]nc4C(F)(F)F)cnc23)ccc1C(=O)N1CCN(C(=O)NCCCN)CC1` [Example 417, N-(3-aminopropyl)-4-[2-methyl-4-[[3-[3-(trifluoromethyl)-1H-pyrazol-4-yl]imidazo[1,2-a]pyrazin-8-yl]amino]benzoyl]piperazine-1-carboxamide formate], the IC90 [1] was 0.506 µM.
With `Cc1cc(Nc2nccn3c(-c4c[nH]nc4C(F)(F)F)cnc23)ccc1C(=O)N1CCN(C(=O)CCN)CC1` [Example 418, 3-amino-1-[4-[2-methyl-4-[[3-[3-(trifluoromethyl)-1H-pyrazol-4-yl]imidazo[1,2-a]pyrazin-8-yl]amino]benzoyl]piperazin-1-yl]propan-1-one formate] the IC90 [1] was 0.583 µM.
`Cc1cc(Nc2nccn3c(-c4cn(CC#N)nc4C(F)(F)F)cnc23)ccc1C(=O)N1CCN(C(=O)N[C@@H]2CNC[C@H]2O)CC1` [Example 419, 4-[4-[[3-[1-(cyanomethyl)-3-(trifluoromethyl)pyrazol-4-yl]imidazo[1,2-a]pyrazin-8-yl]amino]-2-methylbenzoyl]-N-[(3R,4R)-4-hydroxypyrrolidin-3-yl]piperazine-1-carboxamide formate] showed an IC90 [1] of 0.654 µM.
Molecule `Cc1cc(Nc2nccn3c(-c4c[nH]nc4C(F)(F)F)cnc23)ccc1C(=O)N1CCN(C(=O)CCCN)CC1` [Example 420, 4-amino-1-[4-[2-methyl-4-[[3-[3-(trifluoromethyl)-1H-pyrazol-4-yl]imidazo[1,2-a]pyrazin-8-yl]amino]benzoyl]piperazin-1-yl]butan-1-one] has an IC90 [3] of 0.746 µM.

— patent publication US20230203043A1, “NOVEL IMIDAZOPYRAZINE DERIVATIVES” (Hoffmann-La Roche Inc., priority 2020, published 2023)
